According to patent US7816099B1, “Enzyme assay and use thereof” (Myrexis, Inc., priority 2005, dated 2010):

Assays:
[1] = molecular target: T1, Mst4 kinase (Homo sapiens, UniProt Q9P289); test: High throughput assay for the Mst4 protein kinase activity; format: biochemical; conditions: FIG. 5C; 25 nM protein kinase; 1.25 μM ADP in control samples
T1 construct: SDS-PAGE analysis of GST-Mst4(1-317) purified from bacterial cells; made in house; host or cells: bacterial cells
Description: High throughput assay for the Mst4 protein kinase activity. […] FIG. 5C, inhibition of Mst4 kinase by staurosporine. The assay was performed using 25 nM protein kinase. The combination of Mst4 and ATP was substituted with 1.25 μM ADP in control samples.

[2] = molecular target: T2, Aurora-A (Homo sapiens, UniProt O14965); test: High throughput fluorometric assay for the TPX2-stimulated protein kinase activity of Aurora-A; format: biochemical; conditions: FIG. 4E; wild type or D274A mutant enzyme at 25 nM or 1.25 μM ADP; 5 μM ATP, 10 mM MgCl2
T2 construct: Aurora-A(101-403) (the latter protein was generated by cleavage of the GST fusion precursor with thrombin); GST (cleaved yes); made in house
T2 sequence (O14965 101-403): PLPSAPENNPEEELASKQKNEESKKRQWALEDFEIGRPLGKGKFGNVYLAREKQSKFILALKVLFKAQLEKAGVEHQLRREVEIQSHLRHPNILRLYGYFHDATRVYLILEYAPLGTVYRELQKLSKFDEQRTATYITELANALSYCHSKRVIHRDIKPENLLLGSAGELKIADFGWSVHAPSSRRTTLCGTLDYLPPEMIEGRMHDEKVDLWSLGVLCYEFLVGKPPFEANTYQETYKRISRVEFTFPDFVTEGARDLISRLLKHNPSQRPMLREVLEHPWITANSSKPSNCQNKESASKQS
T2 sequence (Q9ULW0 1-50 partner limits assumed): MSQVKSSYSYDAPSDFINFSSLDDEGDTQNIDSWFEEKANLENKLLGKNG
Description: High throughput fluorometric assay for the TPX2-stimulated protein kinase activity of Aurora-A. All the experiments were conducted using 50 mM Tris-HCl, pH 7.5, 5 μM ATP, 10 mM MgCl2 as the assay buffer. The data shown on FIGS. 4A and 4B were generated using two-step assay procedure including Aurora-A-catalyzed kinase reaction followed by the assay of ADP produced. All other experiments were performed using single step assay format. FIG. 4A, comparative analysis of kinase activities of the wild type enzyme and D274A mutant protein performed in the absence of TPX-2. FIG. 4B, effects of GST-TPX2(1-50) on kinase activity. FIG. 4C, time course of signal development for the assays conducted using 25 nM kinase in the absence or in the presence of 50 nM GST-TPX2(1-50). The D274A mutant enzyme was used as negative control. FIG. 4D, time dependence of S/B ratio calculated using data shown on FIG. 4C. The background was defined as the fluorescence intensity of the samples supplemented with the mutant Aurora-A. FIG. 4E, inhibition of Aurora-A activity by staurosporine. The assays were performed using wild type or D274A mutant enzyme at 25 nM concentrations or 1.25 μM ADP. FIG. 4F, SDS-PAGE analysis of the recombinant GST-TPX2(1-50) and Aurora-A(101-403) (the latter protein was generated by cleavage of the GST fusion precursor with thrombin).

T1 sequence (Q9P289 1-317): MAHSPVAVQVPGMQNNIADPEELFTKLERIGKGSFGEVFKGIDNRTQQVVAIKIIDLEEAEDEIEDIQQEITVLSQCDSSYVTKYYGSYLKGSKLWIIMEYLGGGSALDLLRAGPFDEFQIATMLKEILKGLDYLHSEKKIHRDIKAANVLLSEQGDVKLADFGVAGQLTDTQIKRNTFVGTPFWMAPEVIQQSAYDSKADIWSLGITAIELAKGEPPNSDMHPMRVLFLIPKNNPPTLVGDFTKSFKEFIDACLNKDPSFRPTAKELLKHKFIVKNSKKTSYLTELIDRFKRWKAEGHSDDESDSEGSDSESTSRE

CN[C@@H]1C[C@H]2O[C@@](C)([C@@H]1OC)n1c3ccccc3c3c4c(c5c6ccccc6n2c5c31)C(=O)NC4 [staurosporine]
inhibition of Mst4 kinase [1]: inhibition
inhibition of Aurora-A activity [2]: inhibition
